According to ChEMBL document CHEMBL5042536, “Development of High Brain-Penetrant and Reversible Monoacylglycerol Lipase PET Tracers for Neuroimaging” (J Med Chem, 2022):

Tests used:
Monoglyceride lipase = target: T1, Monoglyceride lipase (Mus musculus, UniProt O35678); assay: Inhibition of mouse MAGL using 2-AG as substrate incubated for 30 mins
T1 sequence (O35678 whole entry): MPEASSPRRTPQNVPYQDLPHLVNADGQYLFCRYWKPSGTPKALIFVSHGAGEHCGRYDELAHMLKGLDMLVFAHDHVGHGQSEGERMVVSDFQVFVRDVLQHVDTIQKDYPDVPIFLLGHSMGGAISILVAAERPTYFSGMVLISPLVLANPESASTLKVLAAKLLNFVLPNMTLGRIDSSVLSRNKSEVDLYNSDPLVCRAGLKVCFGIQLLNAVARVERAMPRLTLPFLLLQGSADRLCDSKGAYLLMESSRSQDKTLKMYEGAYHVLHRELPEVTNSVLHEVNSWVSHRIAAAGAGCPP

[1] = Drug uptake in Wistar rat brain striatum at 5 nM incubated for 30 mins by autoradiography; format: ADME, tissue-based; conditions: 0.5 h, 0.005 µM
[2] = Drug uptake in Wistar rat brain striatum at 2 nM incubated for 30 mins by autoradiography; format: ADME, tissue-based; conditions: 0.5 h, 0.002 µM
[3] = Drug uptake in Wistar rat brain incubated for 30 mins in presence of SAR127303 by autoradiography; format: ADME, tissue-based; conditions: 0.5 h
[4] = Distribution coefficient between 1-octanol and phosphate buffer, logD of the compound after 15 mins by shake flask assay; format: physicochemical; conditions: 1-octanol/phosphate buffer
[5] = Drug uptake in […] mouse brain incubated for 30 mins by autoradiography; format: ADME, tissue-based; conditions: 0.5 h
[6] = Drug uptake in Wistar rat brain incubated for 30 mins in presence of PF-06809247 by autoradiography; format: ADME, tissue-based; conditions: 0.5 h
[7] = Drug uptake in Wistar rat brain Thalamus at 5 nM incubated for 30 mins by autoradiography; format: ADME, tissue-based; conditions: 0.5 h, 0.005 µM
[8] = Drug uptake in Wistar rat brain Cerebellum at 2 nM incubated for 30 mins by autoradiography; format: ADME, tissue-based; conditions: 0.5 h, 0.002 µM
[9] = Drug uptake in Wistar rat brain Thalamus at 2 nM incubated for 30 mins by autoradiography; format: ADME, tissue-based; conditions: 0.5 h, 0.002 µM
[10] = Drug uptake in Wistar rat brain Cortex at 5 nM incubated for 30 mins by autoradiography; format: ADME, tissue-based; conditions: 0.5 h, 0.005 µM
[11] = Drug uptake in Wistar rat brain Hippocampus at 2 nM incubated for 30 mins by autoradiography; format: ADME, tissue-based; conditions: 0.5 h, 0.002 µM
[12] = Drug uptake in MAGL knockout mouse brain incubated for 30 mins by autoradiography relative to control; format: ADME, tissue-based; conditions: 0.5 h
[13] = Drug uptake in Wistar rat brain Cerebellum at 5 nM incubated for 30 mins by autoradiography; format: ADME, tissue-based; conditions: 0.5 h, 0.005 µM
[14] = Drug uptake in Wistar rat brain Hippocampus at 5 nM incubated for 30 mins by autoradiography; format: ADME, tissue-based; conditions: 0.5 h, 0.005 µM
[15] = Drug uptake in Wistar rat brain Cortex at 2 nM incubated for 30 mins by autoradiography; format: ADME, tissue-based; conditions: 0.5 h, 0.002 µM
[16] = Drug uptake in wild type mouse brain at 0.74 at 4.94 nmol/kg, iv and measured after 1 min post infection by PET imaging anlaysis; format: ADME, organism-based; conditions: in vivo
[17] = Drug uptake in C57BL/6 mouse brain at 4.41 to 6.8 nmol/kg, iv and measured after 1 min post infection by PET imaging anlaysis; format: ADME, organism-based; conditions: in vivo, dose 4.41-6.8 nmol/kg
[18] = Inhibition of Cynomolgus monkey MAGL using 2-AG as substrate incubated for 30 mins; parameters: species or system Macaca fascicularis
[19] = Stability in mouse serum at 37 degC for 2 hrs by UPLC analysis; format: ADME, cell-free; conditions: read-out: Stability
[20] = Drug metabolism in C57BL/6 mouse brain assessed as intact parent compound 46.50 to 49.39 MBq, iv and measured after 60 mins post injection by radio-UPLC analysis; format: ADME, organism-based; conditions: dose 46.5-49.39 MBq, read-out: Stability
[21] = Clearance in human liver microsomes by LC/MS analysis; format: ADME, Microsome; conditions: read-out: CLH
[22] = Protein binding in mouse plasma assessed as free plasma concentration incubated for 10 mins by ultracentrifugation; format: ADME, cell-free
[23] = Drug metabolism in C57BL/6 mouse brain assessed as intact parent compound at 46.50 to 49.39 MBq, iv and measured after 20 mins post injection by radio-UPLC analysis; format: ADME, organism-based; conditions: dose 46.5-49.39 MBq, read-out: Stability
[24] = Stability in human serum at 37 degC for 2 hrs by UPLC analysis; format: ADME, cell-free; conditions: read-out: Stability
[25] = Protein binding in human plasma assessed as free plasma concentration incubated for 10 mins by ultracentrifugation; format: ADME, cell-free
[26] = Clearance in mouse liver microsomes by LC/MS analysis; format: ADME, Microsome; conditions: read-out: CLH
[27] = Drug metabolism in C57BL/6 mouse brain assessed as intact parent compound at 46.50 to 49.39 MBq, iv and measured after 40 mins post injection by radio-UPLC analysis; format: ADME, organism-based; conditions: dose 46.5-49.39 MBq, read-out: Stability
[28] = Metabolic stability in C57BL/6 mouse brain assessed as remaining parent compound 46.50 to 49.39 MBq, iv and measured after 90 mins post injection by radio-UPLC analysis; format: ADME, organism-based; conditions: dose 46.5-49.39 MBq, read-out: Stability

O=C1CC(N2CCN(c3ncccn3)CC2)CN1c1ccc(N2CC[C@H](F)C2)cc1 (stereo partly specified)
IC50 (Monoglyceride lipase): 80 nM

O=C(c1ccco1)N1CCN(C2CC(=O)N(c3ccc(-c4ccccc4F)cc3)C2)CC1 (stereo unspecified)
IC50 (Monoglyceride lipase): 37 nM

COc1ccccc1-c1ccc(N2CC(N3CCN(c4ncccn4)CC3)CC2=O)cc1 (stereo unspecified)
IC50 (Monoglyceride lipase): 72 nM

O=C(c1ccco1)N1CCN(C2CC(=O)N(c3cccc(-c4cccc(F)c4)c3)C2)CC1 (stereo unspecified)
IC50 (Monoglyceride lipase): 41 nM

O=C(c1ccco1)N1CCN([C@H]2CC(=O)N(c3ccc(-c4ccc(F)cc4)cc3)C2)CC1
IC50 (Monoglyceride lipase): 138 nM

COc1ccccc1-c1ccc(N2CC(N3CCN(C(=O)c4ccco4)CC3)CC2=O)cc1 (stereo unspecified)
IC50 (Monoglyceride lipase): 30 nM

O=C1CC(N2CCN(c3ncccn3)CC2)CN1c1cccc(N2CC[C@@H](F)C2)c1 (stereo partly specified)
IC50 (Monoglyceride lipase): 10700 nM

COc1cccc(-c2ccc(N3CC(N4CCN(C(=O)c5ccco5)CC4)CC3=O)cc2)c1 (stereo unspecified)
Drug uptake [1]: Active | Drug uptake [2]: Active | Drug uptake [3]: 41% | logD at 0.25 h [4]: 2.24 | Drug uptake [5]: Not Active | Drug uptake [6]: 41% | Drug uptake [7]: Active | Drug uptake [8]: Active | Drug uptake [9]: Active | Drug uptake [10]: Active | Drug uptake [11]: Active | IC50 (Monoglyceride lipase): 9 nM | Drug uptake [12]: 41% | Drug uptake [13]: Active | Drug uptake [14]: Active | Drug uptake [15]: Active | SUV [16]: 1.2

O=C(c1ccco1)N1CCN(C2CC(=O)N(c3ccc(-c4ccc(F)nc4)cc3)C2)CC1 (stereo unspecified)
IC50 (Monoglyceride lipase): 127 nM

COc1ccccc1-c1cccc(N2CC(N3CCN(c4ncccn4)CC3)CC2=O)c1 (stereo unspecified)
IC50 (Monoglyceride lipase): 85 nM

O=C(c1ccco1)N1CCN(C2CC(=O)N(c3cccc(N4CC[C@@H](F)C4)c3)C2)CC1 (stereo partly specified)
IC50 (Monoglyceride lipase): 2920 nM

O=C1CC(N2CCN(c3ncccn3)CC2)CN1c1cccc(-c2ccc(F)nc2)c1 (stereo unspecified)
IC50 (Monoglyceride lipase): 2100 nM

COc1cccc(-c2cccc(N3CC(N4CCN(C(=O)c5ccco5)CC4)CC3=O)c2)c1 (stereo unspecified)
Drug uptake [1]: Active | Drug uptake [2]: Active | Drug uptake [3]: 41% | logD at 0.25 h [4]: 2.31 | SUV [17]: 0.6 | Drug uptake [5]: Not Active | Drug uptake [6]: 41% | Drug uptake [7]: Active | Drug uptake [8]: Active | Drug uptake [9]: Active | Drug uptake [10]: Active | Drug uptake [11]: Active | IC50 (Monoglyceride lipase): 15 nM | Drug uptake [12]: 54% | Drug uptake [13]: Active | Drug uptake [14]: Active | Drug uptake [15]: Active

COc1cccc(-c2ccc(N3CC(N4CCN(c5ncccn5)CC4)CC3=O)cc2)c1 (stereo unspecified)
IC50 (Monoglyceride lipase): 20 nM

O=C1CC(N2CCN(c3ncccn3)CC2)CN1c1cccc(N2CC[C@H](F)C2)c1 (stereo partly specified)
IC50 (Monoglyceride lipase): 9300 nM

COc1cccc(-c2cccc(N3CC(N4CCN(c5ncccn5)CC4)CC3=O)c2)c1 (stereo unspecified)
IC50 (Monoglyceride lipase): 39 nM

O=C1CC(N2CCN(c3ncccn3)CC2)CN1c1cccc(-c2cccnc2F)c1 (stereo unspecified)
IC50 (Monoglyceride lipase): 305 nM

O=C(c1ccco1)N1CCN([C@@H]2CC(=O)N(c3ccc(-c4ccc(F)cc4)cc3)C2)CC1
IC50 [18]: 14 nM | remaining at 2 h [19]: > 95% | remaining at 1 h [20]: 68% | microsomal CLint [21]: 21 µL/min/mg | logD at 0.25 h [4]: 2.37 | SUV [17]: 1.63 | fraction unbound at 10 min [22]: 0.24 | remaining at 20 min [23]: 95% | remaining at 2 h [24]: > 95% | IC50 (Monoglyceride lipase): 8 nM | fraction unbound at 10 min [25]: 0.12 | microsomal CLint [26]: 124 µL/min/mg | remaining at 40 min [27]: 70%

O=C(c1ccco1)N1CCN(C2CC(=O)N(c3ccc(N4CC[C@@H](F)C4)cc3)C2)CC1 (stereo partly specified)
IC50 (Monoglyceride lipase): 1080 nM

Cc1ccnc(F)c1-c1cccc(N2C[C@H](N3CCN(C(=O)c4nccs4)CC3)CC2=O)c1
IC50 (Monoglyceride lipase): 13 nM | remaining at 1.5 h [28]: 73%

O=C(c1ccco1)N1CCN(C2CC(=O)N(c3ccc(-c4ccc(F)cc4)cc3)C2)CC1 (stereo unspecified)
IC50 (Monoglyceride lipase): 13 nM
